Measurements taken from ChEMBL document CHEMBL4011614 (J Med Chem, 2017).
Active and inactive are the calls of the source. No cut-off for these calls is given here.

Assays:
[1] = target: CREB-binding protein (Homo sapiens, UniProt Q92793); experiment: Inhibition of CREBBP (unknown origin) by FRET assay
[2] = target: T1, Bromodomain-containing protein 4 (Homo sapiens, UniProt O60885); experiment: Inhibition of BRD4 (unknown origin) by fluorescence polarization assay
[3] = species: Homo sapiens; experiment: Selectivity ratio of IC50 for BRD4 (unknown origin) to IC50 for CREBBP (unknown origin)
[4] = target: T1, Bromodomain-containing protein 4; experiment: Binding affinity to BRD4 (unknown origin) at 75 to 100 uM by isothermal titration assay
[5] = Passive permeability of the compound at 2 uM by cell-based assay; assay type: physicochemical; conditions: not told; read-out: permeability
[6] = Intrinsic clearance in human microsomes at 1 uM; assay type: ADME, Microsome
[7] = target: T2, Alpha-1A adrenergic receptor (Homo sapiens, UniProt P35348); experiment: Displacement of [3H]prazosin from recombinant human adrenergic A1a receptor after 60 mins by scintillation counting method
T2 sequence (P35348 whole entry): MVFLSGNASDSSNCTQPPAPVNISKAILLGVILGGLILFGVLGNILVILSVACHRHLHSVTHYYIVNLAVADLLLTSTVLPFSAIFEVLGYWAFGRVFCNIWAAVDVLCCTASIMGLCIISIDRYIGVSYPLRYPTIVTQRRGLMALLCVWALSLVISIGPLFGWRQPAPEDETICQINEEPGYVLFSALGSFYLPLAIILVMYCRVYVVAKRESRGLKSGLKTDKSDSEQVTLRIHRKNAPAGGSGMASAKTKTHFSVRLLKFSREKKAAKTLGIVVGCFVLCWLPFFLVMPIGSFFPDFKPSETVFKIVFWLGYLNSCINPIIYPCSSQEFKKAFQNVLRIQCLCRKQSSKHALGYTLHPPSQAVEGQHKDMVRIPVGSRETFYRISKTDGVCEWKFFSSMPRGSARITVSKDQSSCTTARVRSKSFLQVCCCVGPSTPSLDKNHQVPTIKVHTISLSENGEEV

[8] = target: Voltage-gated L-type calcium channel (Homo sapiens, UniProt Q13936+Q13698+Q01668+O60840); experiment: Inhibition of L-type calcium channel (unknown origin)
[9] = target: Histone acetyltransferase p300 (Homo sapiens) (UniProt Q09472); experiment: Inhibition of human EP300 (1040 to 1161 residues) expressed in bacterial expression system at 10 uM by bromoscan assay
[10] = target: T1, Bromodomain-containing protein 4; experiment: Inhibition of human BRD4 by fluorescence polarization assay
[11] = Lipophilicity, log D of the compound at pH 7.4 by shake flask method; assay type: physicochemical; conditions: buffer

CREB-binding protein, sequence (Q92793 whole entry): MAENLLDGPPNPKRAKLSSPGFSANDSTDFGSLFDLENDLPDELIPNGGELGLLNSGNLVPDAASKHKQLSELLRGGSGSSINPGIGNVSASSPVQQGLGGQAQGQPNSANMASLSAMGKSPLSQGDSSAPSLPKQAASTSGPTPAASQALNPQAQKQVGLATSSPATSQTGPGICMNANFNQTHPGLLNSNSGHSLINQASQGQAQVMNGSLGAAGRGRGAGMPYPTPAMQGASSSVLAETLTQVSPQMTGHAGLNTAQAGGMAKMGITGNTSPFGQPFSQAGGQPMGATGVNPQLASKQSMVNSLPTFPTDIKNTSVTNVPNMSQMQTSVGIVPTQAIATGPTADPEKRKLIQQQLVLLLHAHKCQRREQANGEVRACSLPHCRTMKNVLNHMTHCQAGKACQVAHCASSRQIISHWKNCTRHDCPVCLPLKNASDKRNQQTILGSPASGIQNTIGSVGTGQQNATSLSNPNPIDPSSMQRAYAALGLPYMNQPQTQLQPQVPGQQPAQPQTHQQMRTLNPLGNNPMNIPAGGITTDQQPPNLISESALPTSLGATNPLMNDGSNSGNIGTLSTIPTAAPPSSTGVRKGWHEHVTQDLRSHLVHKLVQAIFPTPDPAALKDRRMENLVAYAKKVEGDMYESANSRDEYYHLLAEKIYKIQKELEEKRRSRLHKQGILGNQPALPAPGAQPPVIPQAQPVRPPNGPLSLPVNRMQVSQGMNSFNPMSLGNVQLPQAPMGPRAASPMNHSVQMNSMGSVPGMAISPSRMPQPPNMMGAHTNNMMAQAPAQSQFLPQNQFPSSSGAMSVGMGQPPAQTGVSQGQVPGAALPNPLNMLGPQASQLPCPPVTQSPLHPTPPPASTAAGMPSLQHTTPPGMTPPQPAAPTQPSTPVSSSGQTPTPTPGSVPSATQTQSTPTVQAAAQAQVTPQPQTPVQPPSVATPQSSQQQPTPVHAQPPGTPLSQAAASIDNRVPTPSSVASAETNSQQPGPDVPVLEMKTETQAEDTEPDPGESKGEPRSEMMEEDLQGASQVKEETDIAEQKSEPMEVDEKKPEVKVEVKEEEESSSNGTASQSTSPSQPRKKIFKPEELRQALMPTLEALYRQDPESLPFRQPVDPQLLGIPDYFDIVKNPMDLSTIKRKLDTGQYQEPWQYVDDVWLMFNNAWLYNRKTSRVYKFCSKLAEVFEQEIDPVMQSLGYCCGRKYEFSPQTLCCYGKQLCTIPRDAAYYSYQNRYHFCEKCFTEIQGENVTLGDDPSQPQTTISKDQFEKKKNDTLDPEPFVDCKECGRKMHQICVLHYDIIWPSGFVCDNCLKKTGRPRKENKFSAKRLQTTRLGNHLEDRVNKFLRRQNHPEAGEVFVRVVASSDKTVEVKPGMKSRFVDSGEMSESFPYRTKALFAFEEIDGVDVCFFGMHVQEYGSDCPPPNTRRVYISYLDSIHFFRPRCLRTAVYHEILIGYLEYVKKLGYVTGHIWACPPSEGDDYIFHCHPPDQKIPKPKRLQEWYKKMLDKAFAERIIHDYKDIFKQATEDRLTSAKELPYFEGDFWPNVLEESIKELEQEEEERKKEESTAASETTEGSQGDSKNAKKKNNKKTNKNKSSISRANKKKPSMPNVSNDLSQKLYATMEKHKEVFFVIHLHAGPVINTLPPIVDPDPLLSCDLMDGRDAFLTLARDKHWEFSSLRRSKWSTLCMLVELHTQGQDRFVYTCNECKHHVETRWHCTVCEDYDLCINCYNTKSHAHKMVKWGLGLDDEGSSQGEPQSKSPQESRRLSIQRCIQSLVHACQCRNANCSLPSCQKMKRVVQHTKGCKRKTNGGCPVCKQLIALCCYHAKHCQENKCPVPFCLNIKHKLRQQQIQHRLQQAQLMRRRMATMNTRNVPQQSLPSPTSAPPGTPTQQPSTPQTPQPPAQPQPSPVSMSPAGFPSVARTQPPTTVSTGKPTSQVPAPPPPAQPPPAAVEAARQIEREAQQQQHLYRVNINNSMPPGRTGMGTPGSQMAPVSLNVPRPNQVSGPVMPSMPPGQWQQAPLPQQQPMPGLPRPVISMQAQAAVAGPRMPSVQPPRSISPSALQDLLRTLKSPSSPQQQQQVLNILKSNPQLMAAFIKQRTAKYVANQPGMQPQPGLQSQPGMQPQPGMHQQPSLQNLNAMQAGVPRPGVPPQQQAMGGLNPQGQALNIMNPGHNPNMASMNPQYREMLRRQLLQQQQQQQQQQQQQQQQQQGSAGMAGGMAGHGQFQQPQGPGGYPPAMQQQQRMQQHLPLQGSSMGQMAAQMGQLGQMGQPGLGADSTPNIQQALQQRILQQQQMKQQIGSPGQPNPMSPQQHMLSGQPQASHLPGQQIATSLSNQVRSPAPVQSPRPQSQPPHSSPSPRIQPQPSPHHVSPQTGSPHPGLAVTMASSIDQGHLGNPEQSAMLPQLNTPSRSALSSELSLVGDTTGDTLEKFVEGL
Histone acetyltransferase p300 (Homo sapiens), sequence (Q09472 whole entry, the tested form may be a part): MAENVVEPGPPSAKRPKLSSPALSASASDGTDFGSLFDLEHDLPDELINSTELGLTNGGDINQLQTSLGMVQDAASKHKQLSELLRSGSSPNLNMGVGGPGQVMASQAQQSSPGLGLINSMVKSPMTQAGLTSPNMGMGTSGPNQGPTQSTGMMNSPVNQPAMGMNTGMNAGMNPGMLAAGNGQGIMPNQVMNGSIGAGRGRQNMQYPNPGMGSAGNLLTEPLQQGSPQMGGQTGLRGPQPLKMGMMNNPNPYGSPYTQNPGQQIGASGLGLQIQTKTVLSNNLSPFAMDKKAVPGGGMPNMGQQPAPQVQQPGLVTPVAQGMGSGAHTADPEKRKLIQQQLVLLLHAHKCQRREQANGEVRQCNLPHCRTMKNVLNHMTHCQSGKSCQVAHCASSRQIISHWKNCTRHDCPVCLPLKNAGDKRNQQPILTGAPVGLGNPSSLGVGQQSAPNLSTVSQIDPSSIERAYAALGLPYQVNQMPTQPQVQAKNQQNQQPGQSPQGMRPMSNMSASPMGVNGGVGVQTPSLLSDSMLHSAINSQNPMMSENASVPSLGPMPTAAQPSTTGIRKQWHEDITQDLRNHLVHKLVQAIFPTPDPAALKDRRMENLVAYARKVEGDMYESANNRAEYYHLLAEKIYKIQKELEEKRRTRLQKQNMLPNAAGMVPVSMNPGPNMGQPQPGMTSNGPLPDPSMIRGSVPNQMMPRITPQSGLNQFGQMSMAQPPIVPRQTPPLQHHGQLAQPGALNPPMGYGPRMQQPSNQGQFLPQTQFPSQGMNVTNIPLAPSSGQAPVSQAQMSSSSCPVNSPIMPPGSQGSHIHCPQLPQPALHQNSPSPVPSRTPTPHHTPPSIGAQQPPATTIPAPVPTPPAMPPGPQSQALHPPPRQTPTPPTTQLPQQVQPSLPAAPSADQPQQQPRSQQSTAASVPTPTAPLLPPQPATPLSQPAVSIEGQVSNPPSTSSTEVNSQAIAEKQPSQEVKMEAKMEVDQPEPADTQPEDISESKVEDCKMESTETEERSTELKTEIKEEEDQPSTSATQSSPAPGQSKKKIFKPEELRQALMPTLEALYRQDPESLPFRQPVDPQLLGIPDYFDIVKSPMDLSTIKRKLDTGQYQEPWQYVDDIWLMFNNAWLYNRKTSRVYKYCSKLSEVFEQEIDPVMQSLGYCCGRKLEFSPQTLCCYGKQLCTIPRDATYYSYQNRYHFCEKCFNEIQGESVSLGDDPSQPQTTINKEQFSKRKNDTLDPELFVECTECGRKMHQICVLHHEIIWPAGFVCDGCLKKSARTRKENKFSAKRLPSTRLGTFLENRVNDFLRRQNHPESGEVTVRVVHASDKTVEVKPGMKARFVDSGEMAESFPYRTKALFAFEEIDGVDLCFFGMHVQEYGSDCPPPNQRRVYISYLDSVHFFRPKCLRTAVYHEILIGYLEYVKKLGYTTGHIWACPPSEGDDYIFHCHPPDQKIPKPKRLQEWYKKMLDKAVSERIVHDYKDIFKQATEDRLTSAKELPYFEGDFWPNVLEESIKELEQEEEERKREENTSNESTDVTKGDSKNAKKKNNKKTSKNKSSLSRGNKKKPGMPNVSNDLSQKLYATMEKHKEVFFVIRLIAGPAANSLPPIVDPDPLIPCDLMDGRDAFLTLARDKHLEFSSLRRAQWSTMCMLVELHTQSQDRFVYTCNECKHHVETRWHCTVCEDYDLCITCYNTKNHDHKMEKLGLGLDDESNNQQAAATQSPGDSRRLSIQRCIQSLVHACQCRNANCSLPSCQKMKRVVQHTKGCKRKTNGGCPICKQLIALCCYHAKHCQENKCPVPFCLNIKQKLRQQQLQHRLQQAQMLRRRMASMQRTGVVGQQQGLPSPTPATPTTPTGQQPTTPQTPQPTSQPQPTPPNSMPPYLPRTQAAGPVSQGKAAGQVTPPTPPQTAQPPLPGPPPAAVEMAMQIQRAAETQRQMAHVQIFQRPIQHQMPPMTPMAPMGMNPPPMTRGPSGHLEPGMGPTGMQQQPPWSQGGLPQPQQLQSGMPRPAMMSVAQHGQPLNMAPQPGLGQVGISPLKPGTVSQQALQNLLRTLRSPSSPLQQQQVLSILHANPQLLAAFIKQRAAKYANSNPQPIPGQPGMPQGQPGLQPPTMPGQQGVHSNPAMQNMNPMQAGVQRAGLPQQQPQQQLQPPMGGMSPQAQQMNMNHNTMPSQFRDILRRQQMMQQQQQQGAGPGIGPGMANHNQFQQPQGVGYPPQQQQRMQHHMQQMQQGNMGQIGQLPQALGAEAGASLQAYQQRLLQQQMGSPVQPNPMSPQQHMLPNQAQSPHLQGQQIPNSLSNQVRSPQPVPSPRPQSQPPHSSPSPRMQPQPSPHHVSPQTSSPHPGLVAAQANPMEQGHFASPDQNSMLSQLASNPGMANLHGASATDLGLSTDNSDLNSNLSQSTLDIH

IC50 [1] [nM] | IC50 [2] [nM] | Ratio IC50 [3] | Structure (SMILES) | further results
260 | 11200 | 43 | CCCCOc1ccc(CCc2nc3cc(-c4c(C)noc4C)ccc3n2CCN2CCOCC2)cc1 | –
2500 | 16800 | 7 | Cc1noc(C)c1-c1ccc2c(c1)nc(CCc1cncc3ccccc13)n2CCN1CCOCC1 | –
76 | 490 | 6 | Cc1noc(C)c1-c1ccc2c(c1)nc([C@@H]1CCO[C@H]1c1ccccc1)n2CCN1CCOCC1 | –
500 | 3900 | – | CCn1cc(-c2ccc3c(c2)nc(CCc2ccccc2)n3CCN2CCOCC2)ccc1=O | –
360 | 13200 | 37 | Cc1noc(C)c1-c1ccc2c(c1)nc(CCc1ccccc1)n2CC(=O)N1CCOCC1 | –
300 | 4900 | 16 | Cc1noc(C)c1-c1ccc2c(c1)nc(CCc1ccc(C#N)cc1)n2CCN1CCOCC1 | –
980 | 13900 | 14 | COc1ccccc1CCc1nc2cc(-c3c(C)noc3C)ccc2n1CCN1CCOCC1 | –
920 | 9200 | 10 | COc1ccc(OCc2nc3cc(-c4c(C)noc4C)ccc3n2CCN2CCOCC2)cc1 | –
– | – | > 62 | Cc1noc(C)c1-c1ccc2c(c1)nc1n2[C@H](CN2CCOCC2)CC1Cc1ccccc1 (single isomer, unassigned; 32) [listing 1 of 2 here] | –
1300 | > 80000 | – | Cc1noc(C)c1-c1ccc2c(c1)nc1n2[C@H](CN2CCOCC2)CC1Cc1ccccc1 (single isomer, unassigned; 32) [listing 2 of 2 here] | –
240 | 8300 | 35 | COc1ccc(CCc2nc3cc(-c4c(C)noc4C)ccc3n2CCN2CCOCC2)c(OC)c1 | –
210 | 4300 | 20 | Cc1noc(C)c1-c1ccc2c(c1)nc(CCc1ccc(N(C)C)cc1)n2CCN1CCOCC1 | –
– | 18500 | – | Cc1noc(C)c1-c1ccc2c(c1)nc(CCc1ccc(OC(F)(F)F)cc1)n2CCN1CCOCC1 | –
310 | 6000 | – | CCc1noc(C)c1-c1ccc2c(c1)nc(CCc1ccccc1)n2CCN1CCOCC1 | –
– | – | 62 | CCCOc1ccc(CCc2nc3cc(-c4c(C)noc4C)ccc3n2CCN2CCOCC2)cc1 | Activity [4]: inactive; Papp at 2 µM [5]: 7.9 ×10⁻⁶ cm/s; microsomal CLint at 1 µM [6]: > 300 µL/min/mg; IC50 [7]: 620 nM; IC50 [8]: 3000 nM; inhibition [9]: Active
200 | 1400 | 7 | CC(=O)Nc1ccc(CCc2nc3cc(-c4c(C)noc4C)ccc3n2CCN2CCOCC2)cc1 | –
2400 | > 10000 | – | Cc1n[nH]c(C)c1-c1ccc2c(c1)nc(CCc1ccccc1)n2CCN1CCOCC1 | –
780 | 5800 | 7.4 | Cc1noc(C)c1-c1ccc2c(c1)nc(CCc1cccnc1)n2CCN1CCOCC1 | –
740 | 10100 | 14 | Cc1noc(C)c1-c1ccc2c(c1)nc(CCc1c[nH]c3ccccc13)n2CCN1CCOCC1 | –
470 | 9400 | 20 | COc1ccc(CCc2nc3cc(-c4c(C)noc4C)ccc3n2CCN2CCOCC2)cc1OC | –

IC50 [1] [nM] | IC50 [2] [nM] | Ratio IC50 [3] | Structure (SMILES) | further results
240 | 4100 | 17 | Cc1noc(C)c1-c1ccc2c(c1)nc(CCc1ccccc1)n2CCN1CCOCC1 | –
450 | 2000 | – | Cc1noc(C)c1-c1ccc2c(c1)nc1n2[C@H](CN2CCOCC2)CC1Cc1ccccc1 (single isomer, unassigned; 31) [listing 1 of 2 here] | –
– | – | – | COc1ccc(CCc2nc3cc(-c4c(C)noc4C)ccc3n2C[C@H](C)N2CCOCC2)cc1Cl | IC50 [10]: 5850 nM
170 | 18400 | > 100 | COc1ccc(CCc2cc3nc(-c4c(C)noc4C)ccc3n2CCN2CCOCC2)cc1 | Papp at 2 µM [5]: 6.8 ×10⁻⁶ cm/s; logD [11]: 3.29; inhibition [9]: Active
130 | 1600 | 12 | Cc1noc(C)c1-c1ccc2c(c1)nc(-c1cnn3c1CCC3)n2CCN1CCOCC1 | –
1500 | > 120000 | – | COc1ccc(CCc2cc3cc(-c4c(C)noc4C)ccc3n2CCN2CCOCC2)cc1 | –
400 | 14400 | 36 | Cc1noc(C)c1-c1ccc2c(c1)nc(COc1ccccc1)n2CCN1CCOCC1 | –
90 | 3400 | 38 | Cc1noc(C)c1-c1ccc2c(c1)nc(CCc1ccc(N)cc1)n2CCN1CCOCC1 | –
400 | 4100 | 10 | Cc1noc(C)c1-c1ccc2c(c1)nc(CCc1ccncc1)n2CCN1CCOCC1 | –
200 | 4500 | 23 | Cc1noc(C)c1-c1ccc2c(c1)nc(CCc1ccc(OC(C)C)cc1)n2CCN1CCOCC1 | –
160 | 4900 | 31 | Cc1noc(C)c1-c1ccc2c(c1)nc(CCc1ccc3ccccc3n1)n2CCN1CCOCC1 | –
– | – | 4 | Cc1noc(C)c1-c1ccc2c(c1)nc1n2[C@H](CN2CCOCC2)CC1Cc1ccccc1 (single isomer, unassigned; 31) [listing 2 of 2 here] | –
690 | 6900 | 10 | CCCCCOc1ccc(CCc2nc3cc(-c4c(C)noc4C)ccc3n2CCN2CCOCC2)cc1 | –
310 | 4600 | 15 | COc1cccc(CCc2nc3cc(-c4c(C)noc4C)ccc3n2CCN2CCOCC2)c1 | –
> 30000 | > 120000 | – | Cc1nc(C)n(-c2ccc3c(c2)nc(CCc2ccccc2)n3CCN2CCOCC2)n1 | –
130 | 6600 | 51 | CCOc1ccc(CCc2nc3cc(-c4c(C)noc4C)ccc3n2CCN2CCOCC2)cc1 | –
140 | 9400 | 67 | COc1ccc([C@H]2OCC[C@@H]2c2nc3cc(-c4c(C)noc4C)ccc3n2CCN2CCOCC2)cc1 | –
330 | 3200 | 10 | Cc1noc(C)c1-c1ccc2c(c1)nc(CCc1ccccn1)n2CCN1CCOCC1 | –
500 | > 120000 | > 240 | COc1ccc(CCc2c(C#N)c3cc(-c4c(C)noc4C)ccc3n2CCN2CCOCC2)cc1 | –

Structure (SMILES) | IC50 [1] [nM] | IC50 [2] [nM] | Ratio IC50 [3] | further results
COc1cc(-c2ccc3c(c2)nc(CCc2ccccc2)n3CCN2CCOCC2)cccc1=O | 210 | 350 | – | –
